Positions count from the first letter of the chain named. Where two headings read alike, the source gives them in different places.
Experiments:
KCNJ5^L168R = target: T1, KCNJ5^L168R (Homo sapiens, UniProt P48544, L168R); test: Cell viability assay (ATP, CellTiter-Glo): rescue of KCNJ5^L168R-induced lethality in inducible HEK293 cells; type: cell-based
T1 construct: expressed in transfected cells
T1 sequence (P48544 1-419 L168R): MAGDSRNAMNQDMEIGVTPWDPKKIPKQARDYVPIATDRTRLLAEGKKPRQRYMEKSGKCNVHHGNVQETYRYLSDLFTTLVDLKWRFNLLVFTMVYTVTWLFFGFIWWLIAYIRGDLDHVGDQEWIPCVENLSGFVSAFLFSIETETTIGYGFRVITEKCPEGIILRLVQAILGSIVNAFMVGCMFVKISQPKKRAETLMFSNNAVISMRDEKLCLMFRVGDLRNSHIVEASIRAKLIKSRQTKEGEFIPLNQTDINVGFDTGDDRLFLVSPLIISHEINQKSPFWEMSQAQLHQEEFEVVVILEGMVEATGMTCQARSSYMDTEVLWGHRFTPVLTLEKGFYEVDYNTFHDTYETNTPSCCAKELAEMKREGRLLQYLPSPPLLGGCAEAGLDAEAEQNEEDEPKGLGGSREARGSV

KCNJ5^G151R = target: T2, KCNJ5^G151R (Homo sapiens, UniProt P48544, G151R); test: cell-based; type: cell-based
T2 construct: expressed in transfected cells
T2 sequence (P48544 1-419 G151R): T1 sequence (P48544 1-419 L168R) with G151R, R168L
Procedure, shortened: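 Viability is read as cellular ATP by CellTiter-Glo luminescence 72 h later at 37 °C. Uninduced and induced untreated cells set 100% and 0% effect; curves use a 4-parameter logistic fit.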

[1] = tested as in FIG. 7 (FIGS. 9 and 10)
[2] = 10-point dilution 20 to 0.0391 μM, N=3, four-parameter fit

Compound	inhibition of KCNJ5^L168R by synthesized macrolide derivatives (KCNJ5^L168R; [1])	inhibition of KCNJ5^G151R by synthesized macrolide derivatives (KCNJ5^G151R; [1])	L168R maximum inhibition (KCNJ5^L168R; [2])	dose response on KCNJ5^L168R (KCNJ5^L168R; tested at 1.1, 3.3 and 10 μM)	G151R maximum inhibition (KCNJ5^G151R; [2])	G151R minimum inhibition (KCNJ5^G151R; [2])	viability at 10 µM (KCNJ5^G151R; HEK293, 72 h, mean of primary screen and hit pick, read-out: mean % effect)	viability at 10 µM (KCNJ5^G151R; HEK293, ATP level 72 h after induction, uninduced = 100%, induced = 0% effect, first of the two runs (primary screen / hit pick), read-out: % effect (1))	viability at 10 µM (KCNJ5^G151R; HEK293, ATP level 72 h after induction, uninduced = 100%, induced = 0% effect, second of the two runs (primary screen / hit pick, confirmatory testing), read-out: % effect (2))	rescue of ATP level (KCNJ5^G151R; dose-response at 1.1, 3.3 and 10 μM)	inhibition of KCNJ5^MUT (structure-activity statement) (KCNJ5^G151R; macrolide series, dilution curves)
N-demethyl-N-isobutyl-8,9-anhydroerythromycin A 6,9-hemiacetal [PLUX37]	significant inhibition	significant inhibition									
CC[C@H]1OC(=O)[C@H](C)[C@@H](O[C@H]2C[C@@](C)(OC)[C@@H](O)[C@H](C)O2)[C@H](C)[C@@H](O[C@@H]2O[C@H](C)C[C@H](N(C)C)[C@H]2O)[C@](C)(O)C[C@@H](C)/C(=N\OCOCCOC)[C@H](C)[C@@H](O)[C@]1(C)O [Roxithromycin, roxithromycin]			81.39%	showed a dose response	105.92%	9.92%	107%	108%	107%	virtually complete rescue of ATP level	potent effects

— US11484543B2, “Compositions and methods for diagnosing and treating diseases and disorders associated with mutant KCNJ5” (The Rockefeller University, priority 2017, dated 2022)
